Data from patent US9969737B2, “Fluorescent carbapenems” (Hans Rudolf Pfaendler, priority 2010, dated 2018).

Experiments:
[1] = molecular target: T1, Oxa-48-carbapenemases (Klebsiella pneumoniae, UniProt Q6XEC0); experiment: Detection of inducible (Oxa-type) carbapenemases after sonication; type: biochemical, Escherichia coli
T1 construct: endogenous in cells; host or cells: Escherichia coli strain (producing Oxa-48, Heidelberg), with or without imipenem induction, lysed by sonication
Protocol: Detection of inducible (Oxa-type) carbapenemases of Escherichia coli by fluorogenic potassium-(4S,5R,6S)-3-(4-acetyl-phenyl)-6-((1′R)-hydroxy-ethyl)-4-methyl-7-oxo-1-aza-bicyclo[3.2.0]hept-2-ene-2-carboxylate after physical disruption by sonication
Bacterial strain Escherichia cog (producing Oxa-48, Heidelberg) was grown over night at 37° C. (220 rpm) in Mueller-Hinton-Broth (10 ml) using a 45-ml-Falcon tube. A sample (1 ml, McFarland 10) was diluted in Mueller-Hinton-Broth (10 ml) and incubated with Imipenem (2 μg/ml) for 4 h using a 45-ml-Falcon tube. After centrifugation at 13.000 rpm (2 min, 1 ml for analytical studies), the sample was washed once with PBS (1 ml) and resuspended in PBS (500 μl). Subsequently the cells were lysed by sonication with a Bandelin Sonopuls (5×15 s), pulsed at 80% max. power. Further PBS (500 μl) and fluorogenic carbapenem (100 μg) were added.

[2] = test system: Pseudomonas aeruginosa (GES-2, Heidelberg); experiment: Detection of carbapenemases during incubation in Mueller-Hinton-Broth; type: cell-based; conditions: McFarland 0.5, 100 μg, over night at 37° C.
Protocol: (§1) Detection of carbapenemases by fluorogenic potassium-(4S,5R,6S)-3-(4-acetyl-phenyl)-6-((1′R)-hydroxy-ethyl)-4-methyl-7-oxo-1-aza-bicyclo[3.2.0]hept-2-ene-2-carboxylate during incubation
(§2) Bacterial strains Escherichia coli (ESBL-1, Heidelberg), Escherichia coli (ESBL-2, Heidelberg), Escherichia coli (Oxa-48), Klebsiella pneumoniae (KPC-2, Heidelberg) Klebsiella pneumoniae (VIM-1, Heidelberg), Pseudomonas aeruginosa (GES-2, Heidelberg), Pseudomonas aeruginosa (IMP, Heidelberg) and Pseudomonas aeruginosa (VIM-2, Heidelberg) were grown over night at 37° C. in Mueller-Hinton-Broth (10 ml). To each sample (1 ml, McFarland 0.5) was added fluorogenic carbapenem (100 μg).

[3] = test system: Escherichia coli (ESBL-1, Heidelberg); experiment: as above; type: cell-based; conditions: ESBL-producer, McFarland 0.5, 100 μg, over night at 37° C.
Protocol: as §1, §2

[4] = test system: Klebsiella pneumoniae (VIM-1, Heidelberg); experiment: as above; type: cell-based; conditions: McFarland 0.5, 100 μg, over night at 37° C.
Protocol: as §1, §2

[5] = test system: Escherichia coli (Oxa-48); experiment: as above; type: cell-based; conditions: McFarland 0.5, 100 μg, over night at 37° C.
Protocol: as §1, §2

[6] = test system: Pseudomonas aeruginosa (IMP, Heidelberg); experiment: as above; type: cell-based; conditions: McFarland 0.5, 100 μg, over night at 37° C.
Protocol: as §1, §2

[7] = test system: Escherichia coli (ESBL-2, Heidelberg); experiment: as above; type: cell-based; conditions: ESBL-producer, McFarland 0.5, 100 μg, over night at 37° C.
Protocol: as §1, §2

[8] = test system: Pseudomonas aeruginosa (VIM-2, Heidelberg); experiment: as above; type: cell-based; conditions: McFarland 0.5, 100 μg, over night at 37° C.
Protocol: as §1, §2

[9] = test system: Klebsiella pneumoniae (KPC-2, Heidelberg); experiment: as above; type: cell-based; conditions: McFarland 0.5, 100 μg, over night at 37° C.
Protocol: as §1, §2

[10] = molecular target: T2, Klebsiella pneumoniae carbapenemases (KPC), KPC-2 (Klebsiella pneumoniae, UniProt Q9F663); experiment: Detection of KPC carbapenemase during sonication with glass beads; type: biochemical; conditions: sonication with glass beads in ultrasound bath, 100 μg, treatment for 45 min
T2 construct: endogenous in cells; host or cells: Klebsiella pneumoniae clinical strain (KPC-2, Heidelberg), lysed by sonication
T2 sequence (Q9F663 25-293 limits assumed): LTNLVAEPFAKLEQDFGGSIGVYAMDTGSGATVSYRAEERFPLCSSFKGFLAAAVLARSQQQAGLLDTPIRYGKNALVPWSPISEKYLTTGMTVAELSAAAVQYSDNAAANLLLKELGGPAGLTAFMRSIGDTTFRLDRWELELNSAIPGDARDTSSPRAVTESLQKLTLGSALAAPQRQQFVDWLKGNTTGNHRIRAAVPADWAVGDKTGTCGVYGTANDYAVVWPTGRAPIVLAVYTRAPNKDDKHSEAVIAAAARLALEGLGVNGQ
Protocol: Detection of Klebsiella pneumoniae carbapenemases (KPC) by fluorogenic potassium-(4S,5R,6S)-3-(4-acetyl-phenyl)-6-((1′R)-hydroxy-ethyl)-4-methyl-7-oxo-1-aza-bicyclo[3.2.0]hept-2-ene-2-carboxylate during physical disruption by sonication with glass beads
Bacterial strain Klebsiella pneumoniae (producing KPC-2, Heidelberg) was grown over night at 37° C. in Mueller-Hinton-Broth (10 ml). To a sample (1 ml, McFarland 0.5) were added fluorogenic carbapenem (100 μg) and glass beads (100 mg, Sigma-Aldrich, G9018, 150-212 μm, unwashed) using a 5-ml-glass-tube with a plane bottom. The cells were lysed by sonication with a commercial available ultrasound bath.

[11] = test system: Pseudomonas aeruginosa (GES-2, Heidelberg); experiment: Detection of carbapenemases during optimized incubation; type: cell-based; conditions: pre-incubated 6 h at 37° C. (220 rpm), 100 μg, over night at 37° C.
Protocol: (§3) Detection of carbapenemases by fluorogenic potassium-(4S,5R,6S)-3-(4-acetyl-phenyl)-6-((1′R)-hydroxy-ethyl)-4-methyl-7-oxo-1-aza-bicyclo[3.2.0]hept-2-ene-2-carboxylate during optimized incubation
as §2, with “Heidelberg),” for “Heidelberg) and”, “incubated for 6 h” for “grown over night”, “C. (220 rpm)” for “C.”, “ml) using 45-ml-Falcon-tubes.” for “ml).”, “ml)” for “ml, McFarland 0.5)”, “μg) using 15-ml-Falcon-tubes.” for “μg).”

[12] = test system: Escherichia coli (ESBL-1, Heidelberg); experiment: as above; type: cell-based; conditions: ESBL-producer, pre-incubated 6 h at 37° C. (220 rpm), 100 μg, over night at 37° C.
Protocol: as §3
as §2, with “Heidelberg),” for “Heidelberg) and”, “incubated for 6 h” for “grown over night”, “C. (220 rpm)” for “C.”, “ml) using 45-ml-Falcon-tubes.” for “ml).”, “ml)” for “ml, McFarland 0.5)”, “μg) using 15-ml-Falcon-tubes.” for “μg).”

[13] = test system: Klebsiella pneumoniae (VIM-1, Heidelberg); experiment: as above; type: cell-based; conditions: pre-incubated 6 h at 37° C. (220 rpm), 100 μg, over night at 37° C.
Protocol: as §3
as §2, with “Heidelberg),” for “Heidelberg) and”, “incubated for 6 h” for “grown over night”, “C. (220 rpm)” for “C.”, “ml) using 45-ml-Falcon-tubes.” for “ml).”, “ml)” for “ml, McFarland 0.5)”, “μg) using 15-ml-Falcon-tubes.” for “μg).”

[14] = test system: Escherichia coli (Oxa-48); experiment: as above; type: cell-based; conditions: pre-incubated 6 h at 37° C. (220 rpm), 100 μg, over night at 37° C.
Protocol: as §3
as §2, with “Heidelberg),” for “Heidelberg) and”, “incubated for 6 h” for “grown over night”, “C. (220 rpm)” for “C.”, “ml) using 45-ml-Falcon-tubes.” for “ml).”, “ml)” for “ml, McFarland 0.5)”, “μg) using 15-ml-Falcon-tubes.” for “μg).”

[15] = test system: Pseudomonas aeruginosa (IMP, Heidelberg); experiment: as above; type: cell-based; conditions: pre-incubated 6 h at 37° C. (220 rpm), 100 μg, over night at 37° C.
Protocol: as §3
as §2, with “Heidelberg),” for “Heidelberg) and”, “incubated for 6 h” for “grown over night”, “C. (220 rpm)” for “C.”, “ml) using 45-ml-Falcon-tubes.” for “ml).”, “ml)” for “ml, McFarland 0.5)”, “μg) using 15-ml-Falcon-tubes.” for “μg).”

[16] = test system: Escherichia coli (ESBL-2, Heidelberg); experiment: as above; type: cell-based; conditions: ESBL-producer, pre-incubated 6 h at 37° C. (220 rpm), 100 μg, over night at 37° C.
Protocol: as §3
as §2, with “Heidelberg),” for “Heidelberg) and”, “incubated for 6 h” for “grown over night”, “C. (220 rpm)” for “C.”, “ml) using 45-ml-Falcon-tubes.” for “ml).”, “ml)” for “ml, McFarland 0.5)”, “μg) using 15-ml-Falcon-tubes.” for “μg).”

[17] = test system: Pseudomonas aeruginosa (VIM-2, Heidelberg); experiment: as above; type: cell-based; conditions: pre-incubated 6 h at 37° C. (220 rpm), 100 μg, over night at 37° C.
Protocol: as §3
as §2, with “Heidelberg),” for “Heidelberg) and”, “incubated for 6 h” for “grown over night”, “C. (220 rpm)” for “C.”, “ml) using 45-ml-Falcon-tubes.” for “ml).”, “ml)” for “ml, McFarland 0.5)”, “μg) using 15-ml-Falcon-tubes.” for “μg).”

[18] = test system: Klebsiella pneumoniae (KPC-2, Heidelberg); experiment: as above; type: cell-based; conditions: pre-incubated 6 h at 37° C. (220 rpm), 100 μg, over night at 37° C.
Protocol: as §3
as §2, with “Heidelberg),” for “Heidelberg) and”, “incubated for 6 h” for “grown over night”, “C. (220 rpm)” for “C.”, “ml) using 45-ml-Falcon-tubes.” for “ml).”, “ml)” for “ml, McFarland 0.5)”, “μg) using 15-ml-Falcon-tubes.” for “μg).”

[19] = test system: Pseudomonas aeruginosa DSM 1117 (no resistance); experiment: Detection of carbapenemases during chemical lysis; type: biochemical; conditions: McFarland 10 in detergent buffer solution, 100 μg, 6 h at 37° C.
Protocol: (§4) Detection of carbapenemases by fluorogenic potassium-(4S,5R,6S)-3-(4-acetyl-phenyl)-6-((1′R)-hydroxy-ethyl)-4-methyl-7-oxo-1-aza-bicyclo[3.2.0]hept-2-ene-2-carboxylate during chemical lysis
(§5) Bacterial strains Pseudomonas aeruginosa DSM 1117 (no resistance), Pseudomonas aeruginosa (VIM-2, Heidelberg) and Klebsiella pneumoniae (KPC-2, Heidelberg) were incubated over night at 37° C. on Mueller-Hinton-Agar plates. A sample of each strain was suspended (McFarland 10) in primary-amine-free buffer solution (1 ml) of a detergent from Merck (Germany). Fluorogenic carbapenem (100 μg) was added.

[20] = test system: Pseudomonas aeruginosa (VIM-2, Heidelberg); experiment: Detection of carbapenemases during chemical lysis; type: biochemical; conditions: McFarland 10 in detergent buffer solution, 100 μg, 6 h at 37° C.
Protocol: as §4, §5

[21] = test system: Klebsiella pneumoniae (KPC-2, Heidelberg); experiment: Detection of carbapenemases during chemical lysis; type: biochemical; conditions: McFarland 10 in detergent buffer solution, 100 μg, 6 h at 37° C.
Protocol: as §4, §5

[22] = test system: Klebsiella pneumoniae (VIM-1, Heidelberg); experiment: Detection of metallo-carbapenemases in PBS during incubation; type: cell-based; conditions: 100 μg, five drops inoculum McFarland 0.5, over night at 37° C.
Protocol: (§6) Detection of metallo-carbapenemases by fluorogenic potassium-(4S,5R,6S)-3-(4-acetyl-phenyl)-6-((1′R)-hydroxy-ethyl)-4-methyl-7-oxo-1-aza-bicyclo[3.2.0]hept-2-ene-2-carboxylate in PBS during incubation
(§7) Bacterial strains Klebsiella pneumoniae (VIM-1, Heidelberg) and Pseudomonas aeruginosa (IMP, Heidelberg) were grown over night at 37° C. in Mueller-Hinton-Broth (10 ml). To each PBS (1 ml) of fluorogenic carbapenem (100 μg) were added five drops of corresponding inoculum (McFarland 0.5).

[23] = test system: Pseudomonas aeruginosa (IMP, Heidelberg); experiment: as above; type: cell-based; conditions: 100 μg, five drops inoculum McFarland 0.5, over night at 37° C.
Protocol: as §6, §7

[24] = molecular target: T2, Klebsiella pneumoniae carbapenemases (KPC), KPC-2; experiment: Detection of KPC carbapenemase by fluorogenic carbapenem after physical disruption by sonication; type: biochemical; conditions: cells lysed by sonication, PBS, 100 μg carbapenem, room temperature for 5 min
Protocol: Detection of Klebsiella pneumoniae carbapenemases (KPC) by fluorogenic potassium-(4S,5R,6S)-3-(4-acetyl-phenyl)-6-((1′R)-hydroxy-ethyl)-4-methyl-7-oxo-1-aza-bicyclo[3.2.0]hept-2-ene-2-carboxylate after physical disruption by sonication
Bacterial strain Klebsiella pneumoniae (producing KPC-2, Heidelberg) was grown over night at 37° C. (220 rpm) in Mueller-Hinton-Broth (10 ml) using a 45-ml-Falcon tube, harvested by centrifugation at 13.000 rpm (2 min, 1 ml for analytical studies, McFarland 10), washed once with PBS (1 ml), and resuspended in PBS (500 μl). Subsequently the cells were lysed by sonication with a Bandelin Sonopuls (5×15 s), pulsed at 80% max. power. Further PBS (500 μl) and fluorogenic carbapenem (100 μg) were added.

T1 sequence (Q6XEC0 23-265 limits assumed): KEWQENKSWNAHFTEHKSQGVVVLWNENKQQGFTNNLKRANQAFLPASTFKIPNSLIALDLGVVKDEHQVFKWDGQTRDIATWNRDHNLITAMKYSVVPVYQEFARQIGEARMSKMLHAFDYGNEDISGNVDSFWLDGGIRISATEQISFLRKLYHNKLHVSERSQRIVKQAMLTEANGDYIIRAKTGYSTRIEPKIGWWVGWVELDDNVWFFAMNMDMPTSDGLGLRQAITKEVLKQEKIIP

## potassium-(4S,5R,6S)-3-(4-acetyl-phenyl)-6-((1′R)-hydroxy-ethyl)-4-methyl-7-oxo-1-aza-bicyclo[3.2.0]hept-2-ene-2-carboxylate [Example 1]
[1]; induced with Imipenem (2 μg/ml) for 4 h, lysed by sonication, PBS, room temperature for 5 min
  disappearance of the green-yellow fluorescence colour (UV light λ=366 nm): disappearance of the green-yellow fluorescence colour
[1]; non-induced sample, within 30 minutes
  change in fluorescence colour: did not show any change in fluorescence colour
[2]
  disappearance of the green-yellow fluorescence colour (UV light λ=366 nm): disappearance of the green-yellow fluorescence colour
[3]
  change in colour (fluorescence, UV light λ=366 nm): did not show any change in colour
[4]
  disappearance of the green-yellow fluorescence colour (UV light λ=366 nm): disappearance of the green-yellow fluorescence colour
[5]
  disappearance of the green-yellow fluorescence colour (UV light λ=366 nm): disappearance of the green-yellow fluorescence colour
[6]
  disappearance of the green-yellow fluorescence colour (UV light λ=366 nm): disappearance of the green-yellow fluorescence colour
[7]
  change in colour (fluorescence, UV light λ=366 nm): did not show any change in colour
[8]
  disappearance of the green-yellow fluorescence colour (UV light λ=366 nm): disappearance of the green-yellow fluorescence colour
[9]
  disappearance of the green-yellow fluorescence colour (UV light λ=366 nm): disappearance of the green-yellow fluorescence colour
[10]
  disappearance of the green-yellow fluorescence colour (λ=366 nm): disappearance of the green-yellow fluorescence colour
[11]
  disappearance of the green-yellow fluorescence colour (λ=366 nm): disappearance of the green-yellow fluorescence colour
[12]
  change in fluorescence colour (λ=366 nm): did not show any change in fluorescence colour
[13]
  disappearance of the green-yellow fluorescence colour (λ=366 nm): disappearance of the green-yellow fluorescence colour
[14]
  disappearance of the green-yellow fluorescence colour (λ=366 nm): disappearance of the green-yellow fluorescence colour
[15]
  disappearance of the green-yellow fluorescence colour (λ=366 nm): disappearance of the green-yellow fluorescence colour
[16]
  change in fluorescence colour (λ=366 nm): did not show any change in fluorescence colour
[17]
  disappearance of the green-yellow fluorescence colour (λ=366 nm): disappearance of the green-yellow fluorescence colour
[18]
  disappearance of the green-yellow fluorescence colour (λ=366 nm): disappearance of the green-yellow fluorescence colour
[19]
  change in fluorescence colour (λ=366 nm): did not show any change in fluorescence colour
[20]
  disappearance of the green-yellow fluorescence colour (λ=366 nm): disappearance of the green-yellow fluorescence colour
[21]
  disappearance of the green-yellow fluorescence colour (λ=366 nm): disappearance of the green-yellow fluorescence colour
[22]
  disappearance of the green-yellow fluorescence colour (UV light λ=366 nm): disappearance of the green-yellow fluorescence colour
[23]
  disappearance of the green-yellow fluorescence colour (UV light λ=366 nm): disappearance of the green-yellow fluorescence colour
[24]
  disappearance of the green-yellow fluorescence colour (UV light λ=366 nm): disappearance of the green-yellow fluorescence colour
